From patent US9834514B2, “Antibiotic sensitivity-restoring and photosensitive agents” (New Mexico Tech Research Foundation, priority 2015, dated 2017)
Read-outs that look alike come from different tables or passages of the source.

How the values were obtained:
Type in all cases: cell-based
[1] = test system: S. pyogenes (ATCC No. 8133); assay: Light-activated killing, colony counts; conditions: for Dark Toxicity: no light; for Light Toxicity: white light 2 minutes
Procedure: Dose-dependent effects of treating bacteria with compound 1 and irradiation with white light were assessed by treating 10^8 CFU/mL of cells with compound 1, followed by irradiation with white light for 2 minutes. Compound 1 was added at a specific concentration to 1 mL of a 10^8 CFU/mL suspension of the respective bacterial cells, and the cells were incubated at 37° C. for approximately 45 minutes on a rotary shaker at 150 rpm. 0.5 mL of the cell suspension was removed and placed into the wells of a sterile ceramic drop plate, and then the cells were irradiated with white light from a Lumacare™ LC 122A light source for 2 minutes at a distance of approximately 3 cm. The time and distance of the light application delivered about 85 J/cm^2 of 400-700 nm light to the sample. After being irradiated, ten-fold dilutions were made of each cell sample. The dilutions were drip-streaked onto a tryptic soy agar (TSA) plate and incubated at 37° C. for 18-24 hours. Enumeration of bacteria was determined from the dilution, which produced a drip-streak containing approximately 30-300 colonies. After counting the colonies, the CFU/mL was calculated by applying the respective dilution factor and a factor of 100 to account for the 10 μL of sample taken. Appropriate controls were prepared, including cells with no treatment, cells with only compound 1 added, and cells only treated with light.
The error bars in FIG. 12 represent the variations between three replicate determinations.

[2] = test system: E. coli; assay: Resensitization to antibiotics (log reduction, TABLE 29); conditions: compound 1 μM
[3] = test system: A. baumannii; assay: Treatment with compound 1 and PMB at fixed concentrations, with and without white light
Excerpt: FIG. 53 is an example of the treatment of A. baumannii with compound 1 and PMB at fixed concentrations with and without irradiation using white light (λ).

[4] = test system: Jurkat (human lymphoblastoma); assay: Light-activated killing of cell lines (IC50 with/without light)
Procedure: (§1) TABLE 15 depicts the IC50 of compounds in the presence or absence of light for human cell lines. The cell lines used were HeLa (human cervical adenocarcinoma), U-87 MG (human brain gliobastoma), MES-SA (human uterine sarcoma), MES-SA/D×5 (human uterine sarcoma grown in presence of doxorubicin), NCI-H441 (human lung papillary adenocarcinoma), A549 (human lung carcinoma), WI-38 (human embryonic lung normal), MCF7 (human breast adenocarcinoma), SW1088 (human brain astrocytoma), B16F10 (mouse skin melanoma), NIH-3T3 (mouse fibroblast), and Jurkat (human lymphoblastoma). “1-Sol” in TABLE 15 was generated by dissolving compound 1 and potassium hydroxide at a 1:1 ratio in a DMSO/water solution. The cells were irradiated with continuous white light using a LumaCare™ light source for 2 minutes at a distance of 6.5 cm from the cells.

[5] = test system: MES-SA/Dx5 (human uterine sarcoma grown in presence of doxorubicin); assay: as above
Procedure: as §1

## Clc1ccc(/C=C/c2[nH]c3ccccc3c2/C=C/c2ccc(Cl)cc2)cc1 [Compound 1]
[1]; 0.1 μM
  Dark Toxicity: 7.13 × 10^6 ± 1.10 × 10^6 CFU/mL
  Light Toxicity: None Detected (<100 CFU/mL)
[1]; 0.5 μM
  Dark Toxicity: 1.40 × 10^6 ± 7.05 × 10^5 CFU/mL
  Light Toxicity: None Detected (<100 CFU/mL)
[1]; 1.0 μM
  Dark Toxicity: 4.13 × 10^6 ± 9.07 × 10^5 CFU/mL
  Light Toxicity: None Detected (<100 CFU/mL)
[1]; 5.0 μM
  Dark Toxicity: 5.01 × 10^5 ± 4.07 × 10^5 CFU/mL
  Light Toxicity: None Detected (<100 CFU/mL)
[2]; PMB (0.1 μg/mL)
  Log Reduction: 4
[2]; PMB (0.1 μg/mL) + Light (2 min)
  Log Reduction: 7
[3]; FIG. 53
  cell killing with compound 1, PMB and white light: PMB was more efficacious in cell killing when co-administered with compound 1 and light
[3]; compared to either agent alone, FIG. 16
  killing by combination of compound 1 and PMB (CFU): effective at killing A. baumannii
[4]; 2 min, white light 2 minutes, read-out: Compound + light IC50
  IC50: 25 nM
[4]; no light, read-out: Compound IC50
  IC50: > 10000 nM
[5]; Homo sapiens, MES-SA/Dx5, 2 min, MES-SA/Dx5 (no doxorubicin), white light 2 minutes, read-out: Compound + light IC50
  IC50: 720 ± 70 nM
[5]; Homo sapiens, MES-SA/Dx5, 2 min, MES-SA/Dx5 + doxorubicin, white light 2 minutes, read-out: Compound + light IC50
  IC50: 440 ± 100 nM
[5]; Homo sapiens, MES-SA/Dx5, MES-SA/Dx5 + doxorubicin, no light, read-out: Compound IC50
  IC50: 38800 ± 2760 nM
[5]; MES-SA/Dx5 (no doxorubicin), white light 2 minutes, read-out: Compound + light IC50
  IC50: 620 ± 30 nM
